# Measured values taken from patent US5232917A, “Methods, compositions, and compounds for allosteric modulation of the GABA receptor by members of the androstane and pregnane series” (priority 1991, dated 1993).
# Read-outs that look alike come from different tables or passages of the source.
# Legend:
# [1] = tested on: metrazol induced convulsions; test: Inhibition of metrazol induced convulsions (Table 2); assay type: in vivo, mice; details: Mus musculus; inhibition of metrazol induced convulsions; read-out: Anti-Metrazol ED50
# Procedure: Experiments were also performed to determine the physiological relevance of these interactions by measuring the ability of the compound of and used in the invention to modulate TBPS-induced convulsions in Swiss-Webster mice. […] The time to onset of myoclonus (presence of forelimb clonic activity) induced by TBPS was determined by observing each mouse for a period of 45 minutes. Significant differences between the time to onset in control mice vs. steroid-treated mice were determined by Student's t-test. […] The number of animals with tonic and/or clonic convulsions was recorded. In the maximal electroshock test, 50 mA of current at 60 Hz was delivered through corneal electrodes for 200 msec to induce tonic seizure. […] The ED50 (the dose at which the half-maximal effect occurs) was determined for each screen.
# Adult male CFI mice (20-30g) were used in these studies. […] Percent protection against metrazol-induced seizures was plotted against time after administration of the compound. […] Ten to twelve mice were used per dose of test drug. […] The number of animals with tonic and/or clonic convulsions was recorded. The ability of the steroid to abolish the tonic component was defined as the endpoint. Sedative potential was determined by a rotorod test where the number of mice staying on a rotating (6 rpm) rod for ≥1 min. in each of three trials was determined.
# [2] = molecular target: GABA receptor-chloride ionophore complex (GR complex); test: [35S]TBPS binding modulation assay
# [3] = tested on: number of light/dark transitions (anxiety); test: Light/dark transition test; assay type: in vivo, mice (male N.I.H. Swiss-Webster); details: for effect on number of light/dark transitions (words): 3α-OH-DHP 10, 20, 40 mg/kg, 5α-THDOC 20 mg/kg, diazepam 1.0, 5.0, 10, 20 mg/kg, 20 mg/kg
# Description: The light/dark transition test (Crawley and Goodwin, 1980) is based on the observation that rodents naturally tend to explore novel environments, but open, brightly lit arenas are aversive to the rodents and inhibit exploratory behavior (Christmas and Maxwell, 1970; File, 1980). […] Similar to the light/dark transition test, the open-field test measures the antagonism between the tendency to explore a novel environment and the tendency to remain still in an aversive environment (brightly lit arena). […] The open-field test provides a simple, non-punished assessment of the potential anxiolytic properties of novel compounds. Finally, 3α-OH-DHP was tested for anxiolytic properties in a Vogel conflict paradigm. The ability of BZs to attenuate the suppression of behavior by punishment in conflict paradigms is well established (Gellar et al., 1962; Vogel et al., 1971).
# Male N.I.H. Swiss-Webster mice (Harlan) weighing 15-20 g were used in all experiments. The mice were housed 4/cage in polyethylene cages with sawdust bedding. The colony room was environmentally controlled (22° C.) with a 12 hr. light/dark cycle (0600-1800 hrs.). The mice had free access to food and water. The experiments were run from 0700-1500 hrs. and groups were counterbalanced for time of day effects.
# The method used was previously described by Crawley and Goodwin (1980). The apparatus included a large box (26×33×24 cm) connected to a small box (15×22×14 cm) through an opening (5×6 cm). The large box was brightly lit with a standard 100W light bulb, while the small box was kept dark. Following pretreatment with a test drug, mice were placed in the center of the large box and the number of transitions between the large and small boxes was counted for 10 min. […] During the antagonist studies, CGS-8216 was administered 30 min. prior to the test drug.
# 2-Hydroxypropyl β-cyclodextrin Diazepam and chlordiazepoxide are available from Sigma, Co. (St. Louis, Mo.). CGS-8216 was obtained from Ciba-Geigy (Summit, N.J.). All drugs were dissolved in 20% β-cyclodextrin in water and sonicated overnight. All drugs were administered intraperitoneally in a volume of 100 μL/20 g. CGS-8216 was administered subcutaneously in a volume of 100 μL/20 g.
# The vehicle control data were analyzed across test days using an 1-way analysis of variance (ANOVA). […] The dose-response curves were then analyzed using an 1-way ANOVA, followed by Dunnett's t-test for individual comparisons between doses and control. The open-field and habituated locomotor data were analyzed using ANOVA followed by Dunnett's t-test. […] All data is expressed as the mean±S.E.M.
# progesterone receptor = molecular target: T1, progesterone receptor (Bos taurus, UniProt F1N712); test: Inhibition of 3H-progesterone binding to bovine uteral progesterone receptors
# T1 construct: from tissue; host or cells: bovine uterus cytosol
# T1 sequence (F1N712 1-914): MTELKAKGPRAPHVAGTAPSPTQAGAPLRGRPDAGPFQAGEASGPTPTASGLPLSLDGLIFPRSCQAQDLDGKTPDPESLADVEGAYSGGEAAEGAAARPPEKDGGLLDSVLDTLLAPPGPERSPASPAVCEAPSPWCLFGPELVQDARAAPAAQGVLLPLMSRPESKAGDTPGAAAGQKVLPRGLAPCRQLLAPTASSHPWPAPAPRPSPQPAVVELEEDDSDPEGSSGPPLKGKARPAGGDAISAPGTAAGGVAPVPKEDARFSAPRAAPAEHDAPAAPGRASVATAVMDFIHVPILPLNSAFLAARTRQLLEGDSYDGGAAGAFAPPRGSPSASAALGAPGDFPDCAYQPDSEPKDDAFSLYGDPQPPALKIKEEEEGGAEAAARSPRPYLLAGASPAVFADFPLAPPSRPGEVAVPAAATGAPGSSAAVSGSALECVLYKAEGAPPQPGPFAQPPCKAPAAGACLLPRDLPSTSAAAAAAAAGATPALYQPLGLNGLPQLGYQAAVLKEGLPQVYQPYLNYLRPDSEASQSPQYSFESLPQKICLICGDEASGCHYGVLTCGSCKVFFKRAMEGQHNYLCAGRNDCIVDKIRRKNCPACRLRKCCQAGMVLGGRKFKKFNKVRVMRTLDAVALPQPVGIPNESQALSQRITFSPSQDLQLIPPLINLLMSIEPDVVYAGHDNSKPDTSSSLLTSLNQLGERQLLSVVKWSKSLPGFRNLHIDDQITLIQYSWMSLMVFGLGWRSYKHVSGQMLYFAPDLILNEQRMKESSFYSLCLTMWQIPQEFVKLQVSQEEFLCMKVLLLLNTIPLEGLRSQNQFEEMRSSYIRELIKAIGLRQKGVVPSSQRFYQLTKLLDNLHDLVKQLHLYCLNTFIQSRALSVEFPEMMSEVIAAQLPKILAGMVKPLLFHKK
# Outline: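 Bovine uterine cytosol served as the progesterone receptor source. Compounds were scored by their inhibition of ^3H-progesterone binding.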
# [4] = read-out: IC50, inhibition of [35S]-TBPS binding, +5 μM GABA, in the presence of 5 μM GABA
# [5] = read-out: % of inhibition of 3H-progesterone binding, A, competitor 10^-5 M, 0.15 nM 3H-progesterone
# [6] = read-out: % of inhibition of 3H-progesterone binding, A, competitor 10^-6 M, 0.15 nM 3H-progesterone
# [7] = read-out: % of inhibition of 3H-progesterone binding, B, competitor 10^-5 M, 0.25 nM 3H-progesterone
# [8] = read-out: % of inhibition of 3H-progesterone binding, B, competitor 10^-6 M, 0.25 nM 3H-progesterone
compound,measurement,setting,value
"CC(=O)[C@H]1CC[C@H]2[C@@H]3CC[C@H]4C[C@H](O)CC[C@]4(C)[C@H]3CC[C@]12C [Example 3α-OH-DHP, 3α-hydroxy-5α-pregnan-20-one]",ED50,[1],5 mg/kg
same,IC50,[2]; [4],38 nM
same,IC50,"[2]; read-out: IC50, inhibition of [35S]-TBPS binding, No GABA, washed synaptoneurosomes, no GABA added",230 nM
same,number of transitions in 10 min (maximal effect),"[3]; 3α-OH-DHP 20 mg/kg i.p., FIG. 9",70.2±4.3 transitions
same,effect on number of light/dark transitions (words),[3],significant (p<0.01) increase
same,effect on number of light/dark transitions (words),[3]; listed as α-OH-DHP,number of transitions was increased
same,inhibition at 10 µM,progesterone receptor; [5],41%
same,inhibition at 1 µM,progesterone receptor; [6],14%
same,inhibition at 10 µM,progesterone receptor; [7],40%
same,inhibition at 1 µM,progesterone receptor; [8],2%
"C[C@]12CC[C@@H](O)C[C@@H]1CC[C@@H]1[C@@H]2CC[C@]2(C)[C@@H](C(=O)CO)CC[C@@H]12 [Example 5α-THDOC, 3α,21-dihydroxy-5α-pregnan-20-one]",ED50,[1],8 mg/kg
same,IC50,[2]; [4],80 nM
same,"Max. Inhib., maximal % of specifically bound [35S]-TBPS displaced",[2]; saturating concentrations of test compound,100%
same,effect on number of light/dark transitions (words),[3],significantly different from vehicle
same,number of transitions in 10 min,"[3]; 5α-THDOC 10 mg/kg i.p., vehicle 35.2±2.0, p<0.06, FIG. 10",49.4±2.0 transitions
same,effect on number of light/dark transitions at the highest dose,"[3]; 5α-THDOC 40 mg/kg, p<0.05 vs vehicle",significant decrease
same,inhibition at 10 µM,progesterone receptor; [5],35%
same,inhibition at 1 µM,progesterone receptor; [6],13%
same,inhibition at 10 µM,progesterone receptor; [7],28%
same,inhibition at 1 µM,progesterone receptor; [8],5%
